Columns and labels:
[1] = tested on: rape; assay: Test B pre/postemergence rape; format: in vivo, Brassica napus
How it was run: (§1)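 Response is a visual 0-to-10 score relative to untreated plants, where 0 means no effect and 10 means complete control, taken twelve to sixteen days after application. Treatments went onto soil at planting and onto foliage of 1- to 4-leaf plants, using a surfactant-containing non-phytotoxic solvent.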

[2] = tested on: smallflower flatsedge; assay: Test B flood test smallflower flatsedge; format: in vivo, Cyperus difformis
How it was run: (§2)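 Read-out is a visual response score from 0 (no effect) to 10 (complete control), assigned by comparison with untreated controls. Treatment was applied at the 2-leaf stage, and plants stayed in the greenhouse for twelve to sixteen days before scoring.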

[3] = tested on: wild oat; assay: Test B pre/postemergence wild oat; format: in vivo, Avena fatua
How it was run: as §1

[4] = tested on: cocklebur; assay: Test B pre/postemergence cocklebur; format: in vivo, Xanthium strumarium
How it was run: as §1

[5] = tested on: velvetleaf; assay: Test B pre/postemergence velvetleaf; format: in vivo, Abutilon theophrasti
How it was run: as §1

[6] = tested on: bedstraw; assay: Test B pre/postemergence bedstraw; format: in vivo, Galium aparine
How it was run: as §1

[7] = tested on: pigweed; assay: Test B pre/postemergence pigweed; format: in vivo, Amaranthus retroflexus
How it was run: as §1

[8] = tested on: giant foxtail; assay: Test B pre/postemergence giant foxtail; format: in vivo, Setaria faberii
How it was run: as §1

[9] = tested on: morningglory; assay: Test B pre/postemergence morningglory; format: in vivo, Ipomoea hederacea
How it was run: as §1

[10] = tested on: blackgrass; assay: Test B pre/postemergence blackgrass; format: in vivo, Alopecurus myosuroides
How it was run: as §1

[11] = tested on: wheat; assay: Test B pre/postemergence wheat; format: in vivo, Triticum aestivum
How it was run: as §1

[12] = tested on: soybean; assay: Test B pre/postemergence soybean; format: in vivo, Glycine max
How it was run: as §1

[13] = tested on: purple nutsedge; assay: Test B pre/postemergence purple nutsedge; format: in vivo, Cyperus rotundus
How it was run: as §1

[14] = tested on: bamyardgrass; assay: Test B flood test barnyardgrass; format: in vivo, Echinochloa crus-galli
How it was run: as §2

[15] = tested on: surinam grass; assay: Test B pre/postemergence surinam grass; format: in vivo, Brachiaria decumbens
How it was run: as §1

[16] = tested on: duck salad; assay: Test B flood test duck salad; format: in vivo, Heteranthera limosa
How it was run: as §2

[17] = Postemergence, Rate 250 g/ha, scale 0 to 10, 0 is no effect, 10 is complete control
[18] = Postemergence, Rate 500 g/ha, scale of 0 to 10 where 0 is no effect and 10 is complete control
[19] = Preemergence, Rate 62 g/ha, scale 0 to 10 (0 no effect, 10 complete control)
[20] = Preemergence, Rate 125 g/ha, scale of 0 to 10 where 0 is no effect and 10 is complete control
[21] = Preemergence, Rate 250 g/ha, scale 0 to 10, 0 is no effect, 10 is complete control
[22] = Preemergence, Rate 500 g/ha, scale 0 to 10, 0 is no effect, 10 is complete control
[23] = Rate 62 g/ha, Postemergence, scale of 0 to 10 where 0 is no effect and 10 is complete control
[24] = Rate 62 g/ha, flood test species, Pre-emergence, visual evaluation after twelve to sixteen days
[25] = Rate 125 g/ha, under heading Pre-emergence, flood test species, visual evaluation after twelve to sixteen days
[26] = Rate 250 g/ha, Pre-emergence, flood-test species, scale 0 to 10, 0 is no effect, 10 is complete control
[27] = Rate 500 g/ha, Pre-emergence, flood test species, scale 0 to 10 (0 no effect, 10 complete control)
[28] = Postemergence, Rate 125 g/ha, scale 0 to 10, 0 is no effect, 10 is complete control
[29] = Preemergence, Rate 250 g/ha, scale of 0 to 10 where 0 is no effect and 10 is complete control

Q: CC(C)N(C(=O)n1oc(=O)n(CC2CCC2)c1=O)c1ccc(F)cc1 [Compound 403] was tested. Which “Plant response rating, Rape” value [1, 17] did it give?
A: 4

Q: And the “Rape plant response rating” value [1, 18]?
A: 7

Q: And the “Plant response rating, Rape” value [1, 19]?
A: 0

Q: And the “Plant response rating, Rape” value [1, 20]?
A: 1

Q: What about the “Rape plant response rating” value [1, 21] of the same molecule?
A: 5

Q: What about the “Rape plant response rating” value [1, 22] of the same molecule?
A: 7

Q: And the “Rape plant response rating” value [1, 23]?
A: 2

Q: And the “Plant response rating, S. Flatsedge (0 to 10 scale, 0 is no effect, 10 is complete control)” value [2, 24]?
A: 0

Q: And the “S. Flatsedge plant response rating (0 to 10 scale, 0 is no effect, 10 is complete control)” value [2, 25]?
A: 0

Q: And the “S. Flatsedge plant response rating” value [2, 26]?
A: 0

Q: And the “S. Flatsedge plant response rating” value [2, 27]?
A: 6

Q: And the “Wild oats plant response rating” value [3, 18]?
A: 5

Q: And the “Plant response rating, Wild oats” value [3, 19]?
A: 0

Q: And the “Plant response rating, Wild oats” value [3, 20]?
A: 4

Q: What about the “Wild oats plant response rating” value [3, 21] of the same molecule?
A: 5

Q: And the “Wild oats plant response rating” value [3, 22]?
A: 8

Q: And the “Wild oats plant response rating” value [3, 23]?
A: 0

Q: What about the “Plant response rating, Cocklebur” value [4, 28] of the same molecule?
A: 0

Q: And the “Plant response rating, Cocklebur” value [4, 17]?
A: 0

Q: And the “Cocklebur plant response rating” value [4, 18]?
A: 0

Q: And the “Plant response rating, Cocklebur” value [4, 19]?
A: 0

Q: And the “Plant response rating, Cocklebur” value [4, 20]?
A: 0

Q: And the “Cocklebur plant response rating” value [4, 21]?
A: 0

Q: And the “Cocklebur plant response rating” value [4, 23]?
A: 0

Q: What about the “Plant response rating, Velvetleaf” value [5, 17] of the same molecule?
A: 0

Q: And the “Velvetleaf plant response rating” value [5, 18]?
A: 6

Q: And the “Plant response rating, Velvetleaf” value [5, 19]?
A: 0

Q: And the “Plant response rating, Velvetleaf” value [5, 20]?
A: 0

Q: What about the “Velvetleaf plant response rating” value [5, 21] of the same molecule?
A: 3

Q: And the “Velvetleaf plant response rating” value [5, 22]?
A: 5

Q: And the “Velvetleaf plant response rating” value [5, 23]?
A: 0

Q: And the “Plant response rating, Bedstraw” value [6, 28]?
A: 2

Q: What about the “Bedstraw plant response rating” value [6, 18] of the same molecule?
A: 8

Q: And the “Plant response rating, Bedstraw” value [6, 19]?
A: 0

Q: And the “Plant response rating, Bedstraw” value [6, 20]?
A: 0

Q: What about the “Bedstraw plant response rating” value [6, 23] of the same molecule?
A: 0

Q: And the “Plant response rating, Redroot pigweed” value [7, 17]?
A: 1

Q: What about the “Redroot pigweed plant response rating” value [7, 18] of the same molecule?
A: 2

Q: What about the “Plant response rating, Redroot pigweed” value [7, 19] of the same molecule?
A: 0

Q: And the “Plant response rating, Redroot pigweed” value [7, 20]?
A: 4

Q: What about the “Redroot pigweed plant response rating” value [7, 21] of the same molecule?
A: 9

Q: What about the “Redroot pigweed plant response rating” value [7, 22] of the same molecule?
A: 9

Q: What about the “Redroot pigweed plant response rating” value [7, 23] of the same molecule?
A: 0

Q: And the “Plant response rating, Giant foxtail” value [8, 28]?
A: 3

Q: What about the “Plant response rating, Giant foxtail” value [8, 17] of the same molecule?
A: 9

Q: And the “Giant foxtail plant response rating” value [8, 18]?
A: 9

Q: What about the “Plant response rating, Giant foxtail” value [8, 19] of the same molecule?
A: 10

Q: What about the “Plant response rating, Giant foxtail” value [8, 20] of the same molecule?
A: 10

Q: What about the “Giant foxtail plant response rating” value [8, 21] of the same molecule?
A: 10

Q: And the “Giant foxtail plant response rating” value [8, 22]?
A: 10

Q: What about the “Giant foxtail plant response rating” value [8, 23] of the same molecule?
A: 3

Q: And the “Plant response rating, Morningglory” value [9, 17]?
A: 8

Q: What about the “Morningglory plant response rating” value [9, 18] of the same molecule?
A: 10

Q: And the “Plant response rating, Morningglory” value [9, 19]?
A: 0

Q: What about the “Plant response rating, Morningglory” value [9, 20] of the same molecule?
A: 0

Q: What about the “Morningglory plant response rating” value [9, 21] of the same molecule?
A: 0

Q: And the “Morningglory plant response rating” value [9, 22]?
A: 0

Q: And the “Morningglory plant response rating” value [9, 23]?
A: 2

Q: And the “Plant response rating, Blackgrass” value [10, 28]?
A: 9

Q: What about the “Plant response rating, Blackgrass” value [10, 17] of the same molecule?
A: 10

Q: And the “Blackgrass plant response rating” value [10, 18]?
A: 10

Q: And the “Plant response rating, Blackgrass” value [10, 19]?
A: 2

Q: What about the “Plant response rating, Blackgrass” value [10, 20] of the same molecule?
A: 7

Q: What about the “Blackgrass plant response rating” value [10, 29] of the same molecule?
A: 7

Q: And the “Blackgrass plant response rating” value [10, 22]?
A: 9

Q: And the “Blackgrass plant response rating” value [10, 23]?
A: 6

Q: And the “Wheat plant response rating” value [11, 18]?
A: 4

Q: And the “Plant response rating, Wheat” value [11, 19]?
A: 0

Q: And the “Plant response rating, Wheat” value [11, 20]?
A: 0

Q: What about the “Wheat plant response rating” value [11, 21] of the same molecule?
A: 0

Q: What about the “Wheat plant response rating” value [11, 22] of the same molecule?
A: 0

Q: What about the “Wheat plant response rating” value [11, 23] of the same molecule?
A: 0

Q: What about the “Plant response rating, Soybean” value [12, 17] of the same molecule?
A: 6

Q: And the “Soybean plant response rating” value [12, 18]?
A: 8

Q: And the “Plant response rating, Soybean” value [12, 19]?
A: 0

Q: And the “Plant response rating, Soybean” value [12, 20]?
A: 0

Q: And the “Soybean plant response rating” value [12, 21]?
A: 0

Q: What about the “Soybean plant response rating” value [12, 22] of the same molecule?
A: 2

Q: What about the “Soybean plant response rating” value [12, 23] of the same molecule?
A: 4

Q: And the “Plant response rating, Nutsedge” value [13, 17]?
A: 0

Q: And the “Nutsedge plant response rating” value [13, 18]?
A: 0

Q: What about the “Plant response rating, Nutsedge” value [13, 19] of the same molecule?
A: 0

Q: What about the “Plant response rating, Nutsedge” value [13, 20] of the same molecule?
A: 0

Q: And the “Nutsedge plant response rating” value [13, 21]?
A: 0

Q: And the “Nutsedge plant response rating” value [13, 22]?
A: 0

Q: And the “Nutsedge plant response rating” value [13, 23]?
A: 0

Q: What about the “Plant response rating, Barnyardgrass (0 to 10 scale, 0 is no effect, 10 is complete control)” value [14, 24] of the same molecule?
A: 2

Q: What about the “Barnyardgrass plant response rating (0 to 10 scale, 0 is no effect, 10 is complete control)” value [14, 25] of the same molecule?
A: 4

Q: What about the “Barnyardgrass plant response rating” value [14, 26] of the same molecule?
A: 2

Q: And the “Barnyardgrass plant response rating” value [14, 27]?
A: 7

Q: And the “Plant response rating, B. signalgrass” value [15, 28]?
A: 2

Q: What about the “Plant response rating, B. signalgrass” value [15, 17] of the same molecule?
A: 3

Q: What about the “B. signalgrass plant response rating” value [15, 18] of the same molecule?
A: 6

Q: What about the “Plant response rating, B. signalgrass” value [15, 19] of the same molecule?
A: 3

Q: What about the “Plant response rating, B. signalgrass” value [15, 20] of the same molecule?
A: 4

Q: And the “B. signalgrass plant response rating” value [15, 29]?
A: 5

Q: And the “B. signalgrass plant response rating” value ([15]; Preemergence, Rate 500 g/ha, scale of 0 to 10 where 0 is no effect and 10 is complete control)?
A: 7

Q: And the “B. signalgrass plant response rating” value [15, 23]?
A: 0

Q: What about the “Plant response rating, Ducksalad (0 to 10 scale, 0 is no effect, 10 is complete control)” value [16, 24] of the same molecule?
A: 0

Q: What about the “Ducksalad plant response rating (0 to 10 scale, 0 is no effect, 10 is complete control)” value [16, 25] of the same molecule?
A: 0

Q: What about the “Ducksalad plant response rating” value [16, 26] of the same molecule?
A: 0

Q: What about the “Ducksalad plant response rating” value [16, 27] of the same molecule?
A: 0
